Columns and labels:
Assay in all cases: Generic kinase assay (33P-ATP, Myelin Basic Protein)
Type in all cases: biochemical
[1] = molecular target: RICK (Homo sapiens, UniProt O43353); conditions: class symbol: % inhibition at 10 μM or IC50
Method: (§1) In order to determine the inhibitory effect of the compounds of the subject invention on various target enzymes a generic kinase assay was established.
(§2) Reactions were performed in 96-Well U-bottom microtiter plates (Greiner Bio-One; Frickenhausen/Germany, Cat. No. 650161), hereinafter designated “Assay Plates”. 10 μl of a solution comprising 40 μM Myelin Basic Protein (Invitrogen; Carlsbad, Calif./USA; Cat. No. 13228-010) and 4 μM ATP in three-fold concentrated Reaction Buffer (60 mM Tris-HCl, pH 7.5; 30 mM MgCl2; 3 mM dithiothreitol) were added into each well of the Assay Plate. 10 μl of serial dilutions of the compounds of the subject invention, dissolved in 4% DMSO, were then added into each well, except for Positive Control. Wells (C+ wells) and Negative Control Wells (C− wells). 10 μl of 4% DMSO without compounds were added to C+ and C− wells. 10 μl of a 500 mM solution of EDTA in water was then added to C− wells. Then 10 μl of a solution containing 50 μCi/ml Adenosine 5′-[γ-^33P]triphosphate in water was added to each well. To start the reaction 10 μl of the kinase to be assayed was added to each well. The optimal amount of kinase in the assay was determined to be the amount which yields to a turn-over of about 10% of ATP. Assay Plates were incubated for one hour at room temperature. Then 10 μl of a 500 mM solution of EDTA in water was added to each well except C− wells. Samples were now ready for measurement.
(§3) Measurements were preformed in 96-Well MAPH-Filter Plates (Millipore; Billerica, Mass./United States; Cat. No. MAPHNOB50), hereinafter designated “Measurement Plates”. Measurement Plates were washed with 200 μl of a 0.75% H3PO4 solution per well. The H3PO4 solution was exhausted using a Millipore vacuum station. 60 μl of a 0.75% H3PO4 solution was then added into each well, followed by the transfer of 30 μl of each well from the Assay Plate into the corresponding wells of the Measurement Plate. The Measurement Plate was incubated for 30 minutes at room temperature. Thereafter each well was washed three times with 200 μl of a 0.75% H3PO4 solution using a Millipore vacuum station. 20 μl of scintillation liquid (Supermix Liquid Szintillator; Perkin Elmer, Wellesley. Mass./United States; Cat. No. 1200-439) was then added to each well of the Measurement Plate. The plate was sealed and stored for 30 minutes in the darkness before radioactivity was quantified in a MicroBeta Scintillation Counter (Perkin Elmer, Wellesley. Mass./United States).

[2] = molecular target: T1, IKKb (Homo sapiens, UniProt O14920); conditions: class symbol: % inhibition at 10 μM or IC50
T1 sequence (O14920 1-756): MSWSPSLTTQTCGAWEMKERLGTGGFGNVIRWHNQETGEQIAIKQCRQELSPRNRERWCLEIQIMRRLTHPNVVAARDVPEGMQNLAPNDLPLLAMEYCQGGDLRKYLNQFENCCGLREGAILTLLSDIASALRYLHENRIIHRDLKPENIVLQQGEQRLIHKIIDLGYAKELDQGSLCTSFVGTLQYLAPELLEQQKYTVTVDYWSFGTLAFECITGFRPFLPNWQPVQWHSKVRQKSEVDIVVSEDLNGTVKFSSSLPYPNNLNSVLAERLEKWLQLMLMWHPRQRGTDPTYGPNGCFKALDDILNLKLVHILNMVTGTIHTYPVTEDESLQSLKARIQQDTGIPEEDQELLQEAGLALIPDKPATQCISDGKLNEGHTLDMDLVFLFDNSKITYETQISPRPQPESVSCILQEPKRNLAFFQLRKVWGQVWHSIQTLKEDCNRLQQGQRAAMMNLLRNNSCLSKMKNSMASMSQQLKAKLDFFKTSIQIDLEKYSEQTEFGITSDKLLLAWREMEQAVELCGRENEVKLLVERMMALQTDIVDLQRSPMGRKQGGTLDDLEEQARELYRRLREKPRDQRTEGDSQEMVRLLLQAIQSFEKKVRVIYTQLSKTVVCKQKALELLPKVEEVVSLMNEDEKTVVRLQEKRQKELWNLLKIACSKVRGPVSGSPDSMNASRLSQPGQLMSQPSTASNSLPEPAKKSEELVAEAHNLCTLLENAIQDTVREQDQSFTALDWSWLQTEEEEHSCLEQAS
Method: as §1, §2, §3

[3] = test system: PDGFR; conditions: class symbol: % inhibition at 10 μM or IC50
Method: as §1, §2, §3

[4] = molecular target: CDK1/CyclinB (Homo sapiens, UniProt P06493); conditions: class symbol: % inhibition at 10 μM or IC50
Chain of CDK1/CyclinB (P06493 whole entry, species assumed): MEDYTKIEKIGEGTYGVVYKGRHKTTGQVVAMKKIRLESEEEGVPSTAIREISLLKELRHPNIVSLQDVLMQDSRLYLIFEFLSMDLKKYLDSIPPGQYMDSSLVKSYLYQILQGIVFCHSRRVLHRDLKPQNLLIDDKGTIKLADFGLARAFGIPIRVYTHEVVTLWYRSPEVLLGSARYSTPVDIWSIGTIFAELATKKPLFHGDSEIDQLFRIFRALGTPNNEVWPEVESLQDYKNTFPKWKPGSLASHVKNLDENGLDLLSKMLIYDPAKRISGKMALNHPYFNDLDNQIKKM
Chain of CDK1/CyclinB (P14635 whole entry partner, species assumed): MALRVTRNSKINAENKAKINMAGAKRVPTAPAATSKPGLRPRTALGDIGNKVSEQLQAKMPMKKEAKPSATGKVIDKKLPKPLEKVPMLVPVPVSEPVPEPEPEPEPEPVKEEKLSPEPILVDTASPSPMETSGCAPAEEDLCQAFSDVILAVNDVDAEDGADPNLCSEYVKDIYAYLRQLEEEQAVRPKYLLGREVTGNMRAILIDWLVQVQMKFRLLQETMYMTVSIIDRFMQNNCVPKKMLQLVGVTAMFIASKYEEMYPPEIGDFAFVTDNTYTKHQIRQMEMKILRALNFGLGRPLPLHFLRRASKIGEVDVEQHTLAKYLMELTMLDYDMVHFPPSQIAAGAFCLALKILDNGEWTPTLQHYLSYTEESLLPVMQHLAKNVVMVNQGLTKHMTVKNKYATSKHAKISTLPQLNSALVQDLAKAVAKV
Method: as §1, §2, §3

[5] = molecular target: EGFR (Homo sapiens, UniProt P00533); conditions: class symbol: % inhibition at 10 μM or IC50
Chain of EGFR (P00533 25-1210, species assumed): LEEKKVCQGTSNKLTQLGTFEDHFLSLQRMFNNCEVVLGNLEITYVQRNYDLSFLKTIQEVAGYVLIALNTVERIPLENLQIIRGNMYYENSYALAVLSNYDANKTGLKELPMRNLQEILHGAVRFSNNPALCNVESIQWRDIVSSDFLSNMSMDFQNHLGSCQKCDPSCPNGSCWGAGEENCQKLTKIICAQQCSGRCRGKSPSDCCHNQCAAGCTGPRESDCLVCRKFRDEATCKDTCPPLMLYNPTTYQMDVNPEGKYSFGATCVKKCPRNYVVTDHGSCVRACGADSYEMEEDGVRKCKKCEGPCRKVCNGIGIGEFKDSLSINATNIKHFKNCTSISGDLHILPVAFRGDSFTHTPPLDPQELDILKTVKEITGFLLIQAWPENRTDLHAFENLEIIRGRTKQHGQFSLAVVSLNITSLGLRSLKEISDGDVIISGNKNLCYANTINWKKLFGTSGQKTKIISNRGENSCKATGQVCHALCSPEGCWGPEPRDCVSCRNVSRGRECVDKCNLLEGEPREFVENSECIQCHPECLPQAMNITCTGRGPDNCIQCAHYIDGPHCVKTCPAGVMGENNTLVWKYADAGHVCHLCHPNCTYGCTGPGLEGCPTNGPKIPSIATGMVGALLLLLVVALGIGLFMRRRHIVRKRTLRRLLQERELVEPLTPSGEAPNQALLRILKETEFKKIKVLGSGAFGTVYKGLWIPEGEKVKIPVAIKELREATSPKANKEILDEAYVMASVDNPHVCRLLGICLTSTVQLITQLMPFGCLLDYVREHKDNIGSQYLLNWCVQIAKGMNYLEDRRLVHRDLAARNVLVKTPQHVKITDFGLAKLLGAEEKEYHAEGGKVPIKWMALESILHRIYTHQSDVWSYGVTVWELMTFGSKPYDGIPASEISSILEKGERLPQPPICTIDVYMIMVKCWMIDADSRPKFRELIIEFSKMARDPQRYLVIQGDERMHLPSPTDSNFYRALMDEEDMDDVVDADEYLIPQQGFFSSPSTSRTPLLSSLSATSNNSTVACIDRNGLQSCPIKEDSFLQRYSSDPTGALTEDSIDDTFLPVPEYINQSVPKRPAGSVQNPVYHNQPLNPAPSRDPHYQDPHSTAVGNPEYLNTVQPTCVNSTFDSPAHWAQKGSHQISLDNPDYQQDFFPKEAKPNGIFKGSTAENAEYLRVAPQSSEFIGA
Method: as §1, §2, §3

[6] = molecular target: ROCK 2 (Homo sapiens, UniProt O75116); conditions: 1 h; class symbol: % inhibition at 10 μM or IC50; read-out: Inhibitory effect on target ROCK 2
Method: as §1, §2, §3

[7] = molecular target: CDK5/p35 (Homo sapiens, UniProt Q00535); conditions: class symbol: % inhibition at 10 μM or IC50
Method: as §1, §2, §3

[8] = molecular target: CDK2/CyclinA (Homo sapiens, UniProt P24941); conditions: class symbol: % inhibition at 10 μM or IC50
Method: as §1, §2, §3

[9] = molecular target: cRaf (Homo sapiens, UniProt P04049); conditions: 1 h; class symbol: % inhibition at 10 μM or IC50; read-out: Inhibitory effect on target cRaf
Chain of cRaf (P04049 whole entry, species assumed): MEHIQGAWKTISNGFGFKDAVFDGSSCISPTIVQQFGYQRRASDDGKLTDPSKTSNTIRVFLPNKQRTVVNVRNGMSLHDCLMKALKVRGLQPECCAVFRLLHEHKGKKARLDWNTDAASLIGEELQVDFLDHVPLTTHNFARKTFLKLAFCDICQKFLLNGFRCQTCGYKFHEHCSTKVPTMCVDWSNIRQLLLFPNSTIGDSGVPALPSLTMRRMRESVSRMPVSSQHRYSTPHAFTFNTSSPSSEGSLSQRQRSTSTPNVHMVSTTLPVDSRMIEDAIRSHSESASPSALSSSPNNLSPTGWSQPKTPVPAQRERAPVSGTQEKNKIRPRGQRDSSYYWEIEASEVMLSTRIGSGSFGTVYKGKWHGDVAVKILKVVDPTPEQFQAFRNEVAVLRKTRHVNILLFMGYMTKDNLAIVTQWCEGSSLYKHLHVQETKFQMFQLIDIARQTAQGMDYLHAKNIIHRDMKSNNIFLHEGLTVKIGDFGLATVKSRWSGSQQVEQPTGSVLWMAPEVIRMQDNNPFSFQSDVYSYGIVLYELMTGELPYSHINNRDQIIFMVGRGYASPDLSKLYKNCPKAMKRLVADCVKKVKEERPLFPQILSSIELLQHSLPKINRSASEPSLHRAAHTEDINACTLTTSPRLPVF
Method: as §1, §2, §3

[10] = molecular target: c-kit (Homo sapiens, UniProt P10721); conditions: 1 h; class symbol: % inhibition at 10 μM or IC50; read-out: Inhibitory effect on target c-kit
Chain of c-kit (P10721 26-976): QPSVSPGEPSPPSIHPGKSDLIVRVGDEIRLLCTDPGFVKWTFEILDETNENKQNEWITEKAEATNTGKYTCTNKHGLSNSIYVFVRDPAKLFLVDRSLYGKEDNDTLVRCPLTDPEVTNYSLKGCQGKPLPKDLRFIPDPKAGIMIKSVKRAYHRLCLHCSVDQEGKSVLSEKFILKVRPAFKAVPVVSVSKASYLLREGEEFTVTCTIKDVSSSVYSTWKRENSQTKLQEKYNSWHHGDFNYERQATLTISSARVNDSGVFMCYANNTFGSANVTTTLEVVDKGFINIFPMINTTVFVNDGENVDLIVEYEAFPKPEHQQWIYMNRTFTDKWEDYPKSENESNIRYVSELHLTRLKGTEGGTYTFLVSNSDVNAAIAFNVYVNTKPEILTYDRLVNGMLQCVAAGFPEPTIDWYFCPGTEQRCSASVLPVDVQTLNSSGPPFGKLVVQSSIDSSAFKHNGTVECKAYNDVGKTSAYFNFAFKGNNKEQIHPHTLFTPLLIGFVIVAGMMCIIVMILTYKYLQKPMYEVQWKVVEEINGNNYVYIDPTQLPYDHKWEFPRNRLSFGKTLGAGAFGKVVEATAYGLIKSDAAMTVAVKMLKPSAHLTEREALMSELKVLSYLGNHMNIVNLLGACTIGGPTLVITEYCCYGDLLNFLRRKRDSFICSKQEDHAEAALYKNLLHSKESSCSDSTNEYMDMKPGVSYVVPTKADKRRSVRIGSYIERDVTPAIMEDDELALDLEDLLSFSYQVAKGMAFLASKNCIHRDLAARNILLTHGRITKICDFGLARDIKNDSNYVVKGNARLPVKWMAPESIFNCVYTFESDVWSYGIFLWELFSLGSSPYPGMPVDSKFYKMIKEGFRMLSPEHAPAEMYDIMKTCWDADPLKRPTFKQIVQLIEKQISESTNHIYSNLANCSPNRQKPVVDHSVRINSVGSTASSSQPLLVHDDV
Method: as §1, §2, §3

[11] = molecular target: Abl (Homo sapiens, UniProt P00519); conditions: 1 h; class symbol: % inhibition at 10 μM or IC50; read-out: Inhibitory effect on target Abl
Method: as §1, §2, §3

[12] = molecular target: c-Src (Homo sapiens, UniProt P12931); conditions: class symbol: % inhibition at 10 μM or IC50
Chain of c-Src (P12931 whole entry, species assumed): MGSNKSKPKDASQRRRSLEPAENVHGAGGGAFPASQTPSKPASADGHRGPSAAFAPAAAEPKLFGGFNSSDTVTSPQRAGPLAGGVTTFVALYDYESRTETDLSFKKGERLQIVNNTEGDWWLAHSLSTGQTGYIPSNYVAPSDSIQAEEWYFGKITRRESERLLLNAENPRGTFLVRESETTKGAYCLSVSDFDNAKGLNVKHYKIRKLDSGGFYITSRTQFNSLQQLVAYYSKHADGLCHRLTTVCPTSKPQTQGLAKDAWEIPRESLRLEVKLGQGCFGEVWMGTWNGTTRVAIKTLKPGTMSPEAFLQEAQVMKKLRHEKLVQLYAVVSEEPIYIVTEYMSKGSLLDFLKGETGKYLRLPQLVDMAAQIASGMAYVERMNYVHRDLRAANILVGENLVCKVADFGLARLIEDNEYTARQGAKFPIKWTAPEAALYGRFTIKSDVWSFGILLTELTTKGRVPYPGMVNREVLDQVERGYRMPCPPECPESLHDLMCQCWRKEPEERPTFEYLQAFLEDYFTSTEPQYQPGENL
Method: as §1, §2, §3

[13] = molecular target: p56Lck (Homo sapiens, UniProt P06239); conditions: 1 h; class symbol: % inhibition at 10 μM or IC50; read-out: Inhibitory effect on target p56Lck
Chain of p56Lck (P06239 whole entry, species assumed): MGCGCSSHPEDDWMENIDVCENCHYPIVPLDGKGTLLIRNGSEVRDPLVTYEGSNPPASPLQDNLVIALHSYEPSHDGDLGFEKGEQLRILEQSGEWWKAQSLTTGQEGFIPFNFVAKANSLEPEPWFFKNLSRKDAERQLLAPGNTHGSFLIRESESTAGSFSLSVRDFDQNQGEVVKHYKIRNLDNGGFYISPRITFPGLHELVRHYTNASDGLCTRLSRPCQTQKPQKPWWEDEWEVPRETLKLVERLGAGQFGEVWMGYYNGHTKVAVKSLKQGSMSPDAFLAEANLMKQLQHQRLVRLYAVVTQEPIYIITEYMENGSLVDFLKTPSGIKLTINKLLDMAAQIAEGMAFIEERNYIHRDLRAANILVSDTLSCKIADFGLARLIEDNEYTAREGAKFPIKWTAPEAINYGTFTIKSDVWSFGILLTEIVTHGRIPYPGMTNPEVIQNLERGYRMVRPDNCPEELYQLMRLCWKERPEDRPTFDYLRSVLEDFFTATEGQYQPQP
Method: as §1, §2, §3

[14] = molecular target: UL97 (Human cytomegalovirus, UniProt P16788); conditions: class symbol: % inhibition at 10 μM or IC50
Method: as §1, §2, §3

SMILES	Inhibitory effect on target RICK [1]	Inhibitory effect on target IKKb [2]	Inhibitory effect on target PDGFR [3]	Inhibitory effect on target CDK1/CyclinB [4]	Inhibitory effect on target EGFR [5]	inhibition at 10 µM [6] [%]	Inhibitory effect on target CDK5/p35 [7]	Inhibitory effect on target CDK2/CyclinA [8]	inhibition at 10 µM [9] [%]	inhibition at 10 µM [10] [%]	inhibition at 10 µM [11] [%]	Inhibitory effect on target c-Src [12]	inhibition at 10 µM [13] [%]	Inhibitory effect on target UL97 [14]
CC(=O)Nc1cccc(-c2cncc(Nc3ccccc3F)c2)c1 [Compound 237, N-{3-[5-(2-Fluoro-phenylamino)-pyridin-3-yl]-phenyl}-acetamide]	C (C: IC50 measured: <1 μM)	A (A: 50-90% inhibition at 10 μM enzyme concentration)	A (A: 50-90% inhibition at 10 μM enzyme concentration)	A (A: 50-90% inhibition at 10 μM enzyme concentration)	A (A: 50-90% inhibition at 10 μM enzyme concentration)									
Oc1cccc(CNc2cncc(Cc3cccc(O)c3)c2)c1 [Compound 272, (3-hydroxy-benzyl)-[5-(3-hydroxy-benzyl)-pyridin-3-yl]-amine]						50 to 90	A (A: 50-90% inhibition at 10 μM enzyme concentration)	B (B: >90% inhibition at 10 μM enzyme concentration)						
COc1cccc(-c2cncc(NCc3cccc(O)c3)c2)c1F [Compound 236, 3-{[5-(2-Fluoro-3-methoxy-phenyl)-pyridin-3-ylamino]-methyl}-phenol]	C (C: IC50 measured: <1 μM)		A (A: 50-90% inhibition at 10 μM enzyme concentration)	A (A: 50-90% inhibition at 10 μM enzyme concentration)	A (A: 50-90% inhibition at 10 μM enzyme concentration)				50 to 90	> 90	50 to 90	A (A: 50-90% inhibition at 10 μM enzyme concentration)	50 to 90	
Nc1cccc(CNc2cncc(-c3cccc(O)c3)c2)c1 [Compound 245, 3-[5-(3-Amino-benzylamino)-pyridin-3-yl]-phenol]	C (C: IC50 measured: <1 μM)								50 to 90					C (C: IC50 measured: <1 μM)
COC(=O)c1cccc(-c2cncc(NCc3cccc(O)c3)c2)c1 [Compound 243, 3-[5-(3-Hydroxy-benzylamino)-pyridin-3-yl]-benzoic acid methyl ester]	C (C: IC50 measured: <1 μM)					50 to 90		B (B: >90% inhibition at 10 μM enzyme concentration)	50 to 90	50 to 90	50 to 90		> 90	
COc1cccc(-c2cncc(NCc3cccc(O)c3)c2)c1 [Compound 239, 3-{[5-(3-Methoxy-phenyl)-pyridin-3-ylamino]-methyl}-phenol]	C (C: IC50 measured: <1 μM)		B (B: >90% inhibition at 10 μM enzyme concentration)	B (B: >90% inhibition at 10 μM enzyme concentration)	A (A: 50-90% inhibition at 10 μM enzyme concentration)	50 to 90	A (A: 50-90% inhibition at 10 μM enzyme concentration)	C (C: IC50 measured: <1 μM)	50 to 90		50 to 90	B (B: >90% inhibition at 10 μM enzyme concentration)	50 to 90	
O=C(Nc1cncc(-c2cccc(O)c2)c1)c1cccc(O)c1 [Compound 234, 3-Hydroxy-N-[5-(3-hydroxy-phenyl)-pyridin-3-yl]-benzamide]	C (C: IC50 measured: <1 μM)	A (A: 50-90% inhibition at 10 μM enzyme concentration)	B (B: >90% inhibition at 10 μM enzyme concentration)		B (B: >90% inhibition at 10 μM enzyme concentration)				50 to 90	50 to 90	50 to 90	B (B: >90% inhibition at 10 μM enzyme concentration)	> 90	
Oc1cccc(CNc2cncc(-c3cccc(O)c3F)c2)c1 [Compound 231, 2-Fluoro-3-[5-(3-hydroxy-benzylamino)-pyridin-3-yl]-phenol]	C (C: IC50 measured: <1 μM)		A (A: 50-90% inhibition at 10 μM enzyme concentration)	A (A: 50-90% inhibition at 10 μM enzyme concentration)	A (A: 50-90% inhibition at 10 μM enzyme concentration)		A (A: 50-90% inhibition at 10 μM enzyme concentration)		50 to 90	50 to 90	50 to 90	B (B: >90% inhibition at 10 μM enzyme concentration)	50 to 90	
CC(=O)Nc1cccc(-c2cncc(Nc3ccc(F)cc3)c2)c1 [Compound 235, N-{3-[5-(4-Fluoro-phenylamino)-pyridin-3-yl]-phenyl}-acetamide]	C (C: IC50 measured: <1 μM)		A (A: 50-90% inhibition at 10 μM enzyme concentration)	A (A: 50-90% inhibition at 10 μM enzyme concentration)	A (A: 50-90% inhibition at 10 μM enzyme concentration)									
CC(=O)Nc1cccc(-c2cncc(Nc3ccc(C#N)cc3)c2)c1 [Compound 205, N-{3-[5-(4-Cyano-phenylamino)-pyridin-3-yl]-phenyl}-acetamide]	C (C: IC50 measured: <1 μM)	A (A: 50-90% inhibition at 10 μM enzyme concentration)	A (A: 50-90% inhibition at 10 μM enzyme concentration)	A (A: 50-90% inhibition at 10 μM enzyme concentration)			A (A: 50-90% inhibition at 10 μM enzyme concentration)							

From US20090196912A1, “Pyridinylamines” (GPC Botech AG, priority 2004, published 2009)
